Each structure is given as a SMILES string. In brackets after ≈: the same amount, converted by molar mass.

This series in a line: Toxicity in brine shrimp after 24 hrs. In kind it is organism-based. As to conditions: artemia, in vivo; read-out: LD50.

For `COc1cc([C@@H]2c3cc4c(cc3[C@H](O)[C@H]3COC(=O)[C@H]23)OCO4)cc(OC)c1OC` [PODOFILOX], the LC50 at 24 h turned out to be 2 µg/mL (≈ 4.83 µM).
